Measured values reported in patent EP3693362B1, “PARASITIC PLANT GERMINATION REGULATOR” (National University Corporation Tokai National Higher …, priority 2017, dated 2019).
pIC50: −log10 of the molar value. Where two headings read alike, the source gives them in different places.

Key:
AtD14 = biological target: T1, AtD14 (Arabidopsis thaliana, UniProt Q9SQR3); experiment: Affinity for strigolactone receptor, YLG probe competition (fluorescence); assay type: binding
T1 construct: made in house; host or cells: E. coli
T1 sequence (Q9SQR3 1-267): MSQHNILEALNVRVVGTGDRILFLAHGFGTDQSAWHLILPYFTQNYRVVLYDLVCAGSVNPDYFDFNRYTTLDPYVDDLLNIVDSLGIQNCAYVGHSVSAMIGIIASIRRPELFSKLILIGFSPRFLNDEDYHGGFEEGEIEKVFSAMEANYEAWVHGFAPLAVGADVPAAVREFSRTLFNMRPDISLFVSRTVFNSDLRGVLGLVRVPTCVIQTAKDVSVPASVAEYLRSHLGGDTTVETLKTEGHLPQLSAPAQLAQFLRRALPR
Description: PTL 1 reports that the affinity of a test compound for the strigolactone receptor can be evaluated by reacting strigolactone with a probe for evaluation of affinity for a strigolactone receptor (e.g., YLG) in the presence of the test compound, and measuring the fluorescence emitted from the decomposition product of YLG. […] The details are as follows.
(§1) An Arabidopsis thaliana strigolactone receptor (AtD14) was produced in accordance with a usual method. More specifically, cDNA of the receptor was obtained by RT-PCR, and expression and purification were carried out in E. coli. Additionally, Striga strigolactone receptors were produced by the method disclosed in PTL 1 (ShHTL1: amino acid SEQ ID NO: 1, ShHTL2: amino acid SEQ ID NO: 2, ShHTL3: amino acid SEQ ID NO: 3, ShHTL4: amino acid SEQ ID NO: 4, ShHTL5: amino acid SEQ ID NO: 5, ShHTLS: amino acid SEQ ID NO: 6, ShHTL7: amino acid SEQ ID NO: 7, ShHTLS: amino acid SEQ ID NO: 8, ShHTL9: amino acid SEQ ID NO: 9, ShHTL10: amino acid SEQ ID NO: 10, and ShHTL11: amino acid SEQ ID NO: 11.)
(§2) One hundred microliters of a reaction solution containing each of the obtained strigolactone receptors ([…]), YLG (final concentration: […]), and each of the test compounds (final concentration: 0.01 to 10 µM) or the control compound (5-deoxystrigol, final concentration: 0.01 to 10 µM) as a competitive compound (100 mM HEPES, 150 mM NaCl, pH: 7.0, 0.1% DMSO) was prepared and reacted in a 96 black-well plate (Greiner). Sixty after the initiation of the reaction, fluorescence was detected at an excitation wavelength of 480 nm and a detection wavelength of 520 nm using a fluorescence detector (SpectraMax i3, manufactured by Molecular Devices), and the fluorescence intensity was measured.

HTL8 = biological target: T2, HTL8 (Striga hermonthica, UniProt A0A0M4APJ4); experiment: as above; assay type: binding; settings: competition with YLG, test range 0.01 to 10 µM, pH 7.0, read-out: IC50 values of test compounds
T2 sequence (A0A0M4APJ4 1-272): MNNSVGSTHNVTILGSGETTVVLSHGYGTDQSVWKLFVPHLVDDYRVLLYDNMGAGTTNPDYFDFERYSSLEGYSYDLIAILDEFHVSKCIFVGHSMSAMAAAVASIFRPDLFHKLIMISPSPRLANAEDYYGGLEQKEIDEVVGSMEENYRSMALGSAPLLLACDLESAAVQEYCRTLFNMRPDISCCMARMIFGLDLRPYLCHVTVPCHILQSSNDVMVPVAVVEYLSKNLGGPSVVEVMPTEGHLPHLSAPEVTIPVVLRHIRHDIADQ
Method: (§3) PTL 1 reports that the affinity of a test compound for the strigolactone receptor can be evaluated by reacting strigolactone with a probe for evaluation of affinity for a strigolactone receptor (e.g., YLG) in the presence of the test compound, and measuring the fluorescence emitted from the decomposition product of YLG. Therefore, the compounds synthesized in Example 1 were used as the test compounds, and the affinity for the strigolactone receptor was evaluated by a similar method to the above. The details are as follows.
as §1
as §2, with “measured. Based on the measurement results of fluorescence intensity, a Lineweaver-Burk plot was created to calculate the Km values, and the IC50 values of each of the test compounds and the control compound, which are competitive compounds.” for “measured.”
(§4) In Table 7, HTL1 to HTL11 refer to strigolactone receptors (SEQ ID NOs: 1 to 11), and AtD14 refer to the Arabidopsis thaliana strigolactone receptor.

HTL6 = biological target: T3, HTL6 (Striga hermonthica, UniProt A0A0M4AUV4); experiment: as above; assay type: binding; settings: competition with YLG, test range 0.01 to 10 µM, pH 7.0, read-out: IC50 values of test compounds
T3 sequence (A0A0M4AUV4 1-271): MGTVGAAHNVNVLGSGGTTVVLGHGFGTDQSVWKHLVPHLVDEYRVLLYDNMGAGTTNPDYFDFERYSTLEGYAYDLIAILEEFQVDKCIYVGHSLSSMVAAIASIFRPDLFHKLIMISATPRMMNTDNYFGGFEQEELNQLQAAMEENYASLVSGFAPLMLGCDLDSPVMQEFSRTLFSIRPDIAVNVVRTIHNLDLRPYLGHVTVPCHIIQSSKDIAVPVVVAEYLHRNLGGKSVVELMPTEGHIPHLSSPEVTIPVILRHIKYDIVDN
Method: as §3, §1
as §2, with “measured. Based on the measurement results of fluorescence intensity, a Lineweaver-Burk plot was created to calculate the Km values, and the IC50 values of each of the test compounds and the control compound, which are competitive compounds.” for “measured.”
as §4

Striga hermonthica = experiment: Parasitic plant germination induction test (Striga hermonthica seeds); assay type: in vivo; settings: in the dark for 2 days; for Germination rate 0.1 nM: compound concentration 0.1 nM; for Germination rate 1 nM: compound concentration 1 nM; for Germination rate 10 nM: compound concentration 10 nM
Method: A parasitic plant germination induction test was conducted using the compounds synthesized in Example 1 as test compounds. The seeds of a parasitic plant (Striga hermonthica, Orobanche minor, or Phelipanche aegyptiaca) were suspended in sterilized ultrapure water, and this was dispensed in an amount of 100 µL each (containing about 20 seeds) into a 96-well plate. The test compounds or control compounds (Comparison Compound 1 or synthetic Strigolactone (GR^24: Comparison Compound 2)) dissolved in DMSO were individually added thereto to a final concentration of these compounds of 10 nM to 1 fM (1 × 10^-8 to 1 × 10^-15 M), and allowed to stand in the dark for 2 days. The presence or absence of germination was observed using a microscope, and the germination rate (i.e., number of germinated seeds/total number of seeds) was measured. The higher the germination rate in the parasitic plant germination induction test, or the higher the germination rate at lower concentration, the higher the Striga germination inducing activity.
In Tables 1 to 6, the concentrations (10 nM, 1 nM, and 0.1 nM) represent compound concentrations. In Tables 1-6, the evaluation criteria for the compounds are as follows: • ++: germination rate of 20% or more • +: germination rate of 5% or more and less than 20% • -: germination rate of less than 5% Table 1

[1] = AtD14, competition with YLG, test range 0.01 to 10 µM, pH 7.0, read-out: IC50 values of test compounds

Molecule `CC1=CC(OC=C2C(=O)OC3C4=C(CCCC4(C)C)CC23)OC1=O` (centres unmarked) [5-Ddeoxystriqol, 5-deoxystrigol, reference compound] has a pIC50 (AtD14; [1]) of 6.36, a pIC50 (HTL8) of 6.44 and a pIC50 (HTL6) of 6.72.
With `CC1=CC(OC(=O)NCc2ccccc2)OC1=O` (centres unmarked) [Comparison Compound 1, reference compound] the pIC50 (HTL8) was under 5.00, the pIC50 (HTL6) was under 5.00 and the “Germination rate 0.1 nM” value (Striga hermonthica) was “- (germination rate of less than 5%)”. For the same molecule, the “Germination rate 1 nM” value (Striga hermonthica) was “- (germination rate of less than 5%)” and the “Germination rate 10 nM” value (Striga hermonthica) was “- (germination rate of less than 5%)”.
In the case of `CCCCOc1ccc(S(=O)(=O)N2CCN(C(=O)OC3C=C(C)C(=O)O3)CC2)cc1` (centres unmarked) [Compound 1], the pIC50 (AtD14) was under 5.00, the pIC50 (HTL8) was 5.96 and the pIC50 (HTL6) was under 5.00. For the same molecule, the “Germination rate 0.1 nM” value (Striga hermonthica) was “++ (germination rate of 20% or more)”, the “Germination rate 1 nM” value (Striga hermonthica) was “++ (germination rate of 20% or more)” and the “Germination rate 10 nM” value (Striga hermonthica) was “++ (germination rate of 20% or more)”.
`CCCCOc1ccc(S(=O)(=O)N2CCN(C(=O)OC3C=CC(=O)O3)CC2)cc1` (centres unmarked) [Compound 13] showed a pIC50 (AtD14; [1]) of under 5.00, a pIC50 (HTL8) of under 5.00 and a pIC50 (HTL6) of under 5.00. For the same molecule, the “Germination rate 0.1 nM” value (Striga hermonthica) was “+ (germination rate of 5% or more and less than 20%)”, the “Germination rate 1 nM” value (Striga hermonthica) was “++ (germination rate of 20% or more)” and the “Germination rate 10 nM” value (Striga hermonthica) was “++ (germination rate of 20% or more)”.
